How the values were obtained:
Type in all cases: in vivo
Papaver rhoeas = assay: Postemergence herbicidal safening in cereal crops; conditions: Table 5, applied alone, after 3 weeks
Procedure: (§1) Seeds of the desired test plant species were planted in Sun Gro MetroMix® 306 planting mixture, which typically has a pH of 6.0 to 6.8 and an organic matter content of about 30 percent, in plastic pots with a surface area of 103.2 square centimeters. When required to ensure good germination and healthy plants, a fungicide treatment and/or other chemical or physical treatment was applied. The plants were grown for 7-36 days in a greenhouse with an approximate 14 hour photoperiod which was maintained at about 18° C. during the day and 17° C. during the night. Nutrients and water were added on a regular basis and supplemental lighting was provided with overhead metal halide 1000-Watt lamps as necessary. The plants were employed for testing when they reached the second or third true leaf stage. Treatments consisted of compound 42 and cloquintocet-mexyl alone and in combination. Weighed amounts were placed in 25 mL glass vials and dissolved in a volume of 97:3 v/v acetone/DMSO to obtain 9 mg ai/mL stock solutions. […] A dilution solution was prepared by mixing 1 volume of 97:3 v/v acetone/DMSO and 2 volumes of an aqueous mixture containing acetone, water, isopropyl alcohol, DMSO, Agri-dex crop oil concentrate, and Triton® X-77 surfactant in a 64.7:26.0:6.7:2.0:0.7:0.01 v/v ratio. Compound requirements are based upon a 12 mL application volume at a rate of 187 L/ha. […] Formulated compounds were applied to the plant material with an overhead Mandel track sprayer equipped with a […] nozzles calibrated to deliver 187 L/ha over an application area of 0.503 square meters at a spray height of 18 inches (43 cm) above average plant canopy height. Control plants were sprayed in the same manner with the solvent blank. The treated plants and control plants were placed in a greenhouse as described above and watered by sub-irrigation to prevent wash-off of the test compounds. After 3 weeks the condition of the test plants as compared with that of the untreated plants was determined visually and scored on a scale of 0 to 100 percent where 0 corresponds to no injury and 100 corresponds to complete kill. Colby's equation was used to determine the herbicidal effects expected from the mixtures (Colby, S. R. 1967. Calculation of the synergistic and antagonistic response of herbicide combinations. Weeds 15:20-22.). The following equation was used to calculate the expected activity of mixtures containing two active ingredients, A and B: Expected=A+B-(A×B/100) • A=observed efficacy of active ingredient A at the same concentration as used in the mixture. • B=observed efficacy of active ingredient B at the same concentration as used in the mixture.

[1] = test system: Hordeum vulgare (winter barley); assay: Postemergence herbicidal safening in cereal crops; conditions: Table 5, applied alone, after 3 weeks
Procedure: as §1

[2] = test system: Triticum aestivum (spring wheat); assay: Postemergence herbicidal safening in cereal crops; conditions: Table 5, applied alone, after 3 weeks
Procedure: as §1

Galium aparine = assay: Postemergence herbicidal safening in cereal crops; conditions: Table 5, applied alone, after 3 weeks
Procedure: as §1

[3] = test system: Hordeum vulgare (winter barley); assay: Postemergence herbicidal activity of mixtures in cereal crops; conditions: after 3 weeks
Procedure: (§2) Seeds of the desired test plant species were planted and reared as described in “Evaluation of Postemergence Herbicidal Safening in Cereal Crops” (section 37).
(§3) Treatments consisted of compound (as listed in Tables 6 and 7), fluroxypyr methylheptyl ester (MHE), and clopyralid monoethanolamine (MEA) salt alone and in combination. Weighed amounts were placed in 25 mL glass vials and dissolved in a volume of 97:3 v/v acetone/DMSO to obtain 4.5 mg ai/mL stock solutions. […] The concentrated stock solutions were diluted to 1.5 mg ai/mL with the addition of 2 volumes of an aqueous mixture containing acetone, water, isopropyl alcohol, DMSO, Agri-dex crop oil concentrate, and Triton® X-77 surfactant in a 64.7:26.0:6.7:2.0:0.7:0.01 v/v ratio. A dilution solution was prepared by mixing 1 volume of 97:3 v/v acetone/DMSO and 2 volumes of an aqueous mixture containing acetone, water, isopropyl alcohol, DMSO, Agri-dex crop oil concentrate, and Triton® X-77 surfactant in a 64.7:26.0:6.7:2.0:0.7:0.01 v/v ratio. Compound requirements are based upon a 12 mL application volume at a rate of 187 L/ha. Spray solutions of fluroxypyr MHE, clopyralid MEA, and experimental compound mixtures were prepared by adding the stock solutions to the appropriate amount of dilution solution to form 12 mL spray solution with active ingredients in two- and three-way combinations. Formulated compounds were applied to the plant material with an overhead Mandel track sprayer equipped with a 8002E nozzles calibrated to deliver 187 L/ha over an application area of 0.503 square meters at a spray height of 18 inches (43 cm) above average plant canope. Control plants were sprayed in the same manner with the solvent blank.
(§4) The treated plants and control plants were placed in a greenhouse as described above and watered by sub-irrigation to prevent wash-off of the test compounds. After 3 weeks the condition of the test plants as compared with that of the control plants was determined visually and scored on a scale of 0 to 100 percent where 0 corresponds to no injury and 100 corresponds to complete kill.
(§5) Colby's equation was used to determine the herbicidal effects expected from the mixtures (Colby, S. R. 1967. Calculation of the synergistic and antagonistic response of herbicide combinations. Weeds 15:20-22.).
(§6) The following equation was used to calculate the expected activity of mixtures containing two active ingredients, A and B: Expected=A+B−(A×B/100) • A=observed efficacy of active ingredient A at the same concentration as used in the mixture. • B=observed efficacy of active ingredient B at the same concentration as used in the mixture.
(§7) The following equation was used to calculate the expected activity of mixtures containing three active ingredients, A, B, and C: Expected=A+B+C−(A×B+B×C+A×C)/100+(A×B×C)/10000 • A=observed efficacy of active ingredient A at the same concentration as used in the mixture. • B=observed efficacy of active ingredient B at the same concentration as used in the mixture. • C=observed efficacy of active ingredient C at the same concentration as used in the mixture.

[4] = test system: Triticum aestivum (spring wheat); assay: as above; conditions: after 3 weeks
Procedure: as §2, §3, §4, §5, §6, §7

Matricaria chamomilla = assay: as above; conditions: after 3 weeks
Procedure: as §2, §3, §4, §5, §6, §7

[5] = Table 7, applied alone, 35 g ai/ha
[6] = Table 7, applied alone, 70 g ai/ha
[7] = Table 6, applied alone, 35 g ai/ha

Compound | % Control PAPRH Ob (Papaver rhoeas; 35 g ai/ha) | % Control PAPRH Ob (Papaver rhoeas; 70 g ai/ha) | % Control HORVW Ob ([1]; 35 g ai/ha) | % Control HORVW Ob ([1]; 70 g ai/ha) | % Control TRZAS Ob ([2]; 35 g ai/ha) | % Control TRZAS Ob ([2]; 70 g ai/ha) | % Control GALAP Ob (Galium aparine; 35 g ai/ha) | % Control GALAP Ob (Galium aparine; 70 g ai/ha) | % Control HORVW Ob [3, 5] | % Control HORVW Ob [3, 6] | % Control TRZAS Ob [4, 5] | % Control TRZAS Ob [4, 6] | % Control MATCH Ob (Matricaria chamomilla; [5]) | % Control MATCH Ob (Matricaria chamomilla; [6]) | % Control HORVW Ob [3, 7] | % Control TRZAS Ob [4, 7] | % Control MATCH Ob (Matricaria chamomilla; [7])
COC(=O)c1nc(-c2ccc(Cl)c(OC)c2F)cc(N)c1Cl [Compound 42, 4-Amino-3-chloro-6-(4-chloro-2-fluoro-3-methoxyphenyl)pyridine-2-carboxylic acid methyl ester] | 100% | 100% | 0% | 15% | 35% | 40% | 99% | 100% | 25% | 30% | 30% | 45% | 50% | 60% | – | – | –
COC(=O)c1nc(-c2c(F)cc(Cl)c(OC)c2F)cc(N)c1Cl [Compound 58, 4-Amino-3-chloro-6-(4-chloro-2,6-difluoro-3-methoxyphenyl)pyridine-2-carboxylic acid, methyl ester] | – | – | – | – | – | – | – | – | – | – | – | – | – | – | 15% | 35% | 0%
